The target of experiment [1] is HBV C150Bo capsid protein (mutant C150 HBV core protein labeled with BODIPY-FL) (Hepatitis B virus genotype D subtype adw, UniProt P03147, C107A/C48A/C61A/R150C). The experiment in a line: HBV assembly assay (fluorescence quenching in vitro capsid assembly). The format is biochemical. The note with it: at about 10 μM; 50 mM Hepes pH 7.5, 150 mM NaCl, 1 hour room temperature.

The test system of experiment [2] is HBV replication in HepG2-2.2.15 cells. The experiment in a line: Inhibition of HBV replication dot-blot assay. Particulars: Hepatitis B virus, 144 h, six days, reduction in HBV DNA levels. The experiment is classed as cell-based. Here is the method:
Compounds active in the HBV assembly assay are tested for their activity and toxicity in cellular assay. In the first anti-viral assay, the ability of compounds to inhibit HBV replication in an HBV-producing hepatoma cell line using the dot-blot method is evaluated.
Briefly, confluent monolayers of HepG2-2.2.15 cells are incubated with complete medium containing various concentrations of a test compound. Three days later, the culture medium is replaced with fresh medium containing the appropriately diluted test compound. Six days following the initial administration of the test compound, the cell culture supernatant is collected, and cell lysis is performed. The samples are applied onto Nylos membranes and DNA is immobilized to the membrane by UV cross-linking. After pre-hybridization, the HBV probe is added and the hybridization is performed overnight. The membranes are exposed to the Kodak films; antiviral activity is calculated from the reduction in HBV DNA levels (EC50). The EC50 for antiviral activity is calculated from the dose response curves of active compounds. Assay performance over time is monitored by the use of the standard positive control compounds ETV, BAY 41-4109, and HAP-1.
Selected compounds were tested for their activity and toxicity in cellular assay. In the first anti-viral assay, the ability of compounds to inhibit HBV replication in an HBV-producing hepatoma cell line using the dot-blot method was evaluated.
Confluent monolayers of HepG2-2.2.15 cells were incubated with complete medium containing various concentrations of a test compound. Three days later, the culture medium was replaced with fresh medium containing the appropriately diluted test compound. Six days following the initial administration of the test compound, the cell culture supernatant was collected, and cell lysis was performed. The samples were applied onto Nylos membranes and DNA was immobilized to the membrane by UV cross-linking. After pre-hybridization, the HBV probe was added and the hybridization was performed overnight. The membranes were exposed to the Kodak films; antiviral activity was calculated from the reduction in HBV DNA levels (EC50). The EC50 for antiviral activity was calculated from the dose response curves of active compounds. Assay performance over time was monitored by the use of the standard positive control compounds ETV, BAY 41-4109, and HAP-1.

Consider 33 compounds from patent publication US9181288B2, “Azepane derivatives and methods of treating hepatitis B infections” (Novira Therapeutics, Inc., priority 2014, dated 2015).

Bounds are passed on as bounds.

HBV C150Bo capsid protein (mutant C150 HBV core protein labeled with BODIPY-FL), sequence (P03147 1-150 C48A/C61A/C107A/R150C): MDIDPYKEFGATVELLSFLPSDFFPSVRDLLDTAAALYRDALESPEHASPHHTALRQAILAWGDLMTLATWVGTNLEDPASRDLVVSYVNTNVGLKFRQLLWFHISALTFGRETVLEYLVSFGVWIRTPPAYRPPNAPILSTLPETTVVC

By inhibition is commonly meant the change of the read-out against control, counted positive when it falls. The low end stands for little suppression, the high end for strong suppression. `O=C(Nc1cc(F)c(F)c(F)c1)c1ccc(F)c(S(=O)(=O)N2CCCC(O)C(F)(F)C2)c1` (stereo not drawn) [Compound 2199]: the “Activity (HBV assembly assay)” value in experiment [1] is listed as “+ (‘+’ indicates >50% activity at about 10 μM)”. Also, in experiment [2], the inhibition at 10 µM was > 50%.
As for `O=C(Nc1ccc(F)c(Cl)c1)c1ccc(F)c(S(=O)(=O)N2CC(O)CC3CC3C2)c1` (stereo not drawn) [Compound 2492], in experiment [1], the “Activity (HBV assembly assay)” value is “+ (‘+’ indicates >50% activity at about 10 μM)”. Besides, in experiment [2], the inhibition at 10 µM is > 50%.
Taken in the same sequence, the figures for `O=C(Nc1ccc(F)c(F)c1)c1ccc(F)c(S(=O)(=O)N2CCCC(F)[C@H](O)C2)c1` (stereo partly drawn) [Compound 1821_D2] were “+ (‘+’ indicates >50% activity at about 10 μM)” and > 50%.
Take `CC1(O)COCCN(S(=O)(=O)c2cc(C(=O)Nc3ccc(F)c(Cl)c3)ccc2F)C1` (stereo not drawn) [Compound 1986]: the “Activity (HBV assembly assay)” value in experiment [1] is reported as “+ (‘+’ indicates >50% activity at about 10 μM)”. In experiment [2], the inhibition at 10 µM was > 50%.
Take `O=C(Nc1cc(F)c(F)c(F)c1)c1ccc(F)c(S(=O)(=O)N2CC(O)CCC(F)C2)c1` (stereo not drawn) [Compound 1826_D2]: the “Activity (HBV assembly assay)” value in experiment [1] is given as “+ (‘+’ indicates >50% activity at about 10 μM)”. Further, the inhibition at 10 µM in experiment [2] is > 50%.
Taken in the same sequence, the figures for `O=C(Nc1ccc(F)c(F)c1)c1ccc(F)c(S(=O)(=O)N2CCCC(F)[C@@H](O)C2)c1` (stereo partly drawn) [Compound 1821_D1] were “+ (‘+’ indicates >50% activity at about 10 μM)” and > 50%.
On the same counts, the results for `O=C(Nc1ccc(F)c(Cl)c1)c1ccc(F)c(S(=O)(=O)N2CCOC[C@H](O)C2)c1` [Compound 1893_E2] are “+ (‘+’ indicates >50% activity at about 10 μM)” and > 50%.
`O=C(Nc1ccc(F)c(Cl)c1)c1ccc(F)c(S(=O)(=O)N2CCCC(F)[C@H](O)C2)c1` (stereo partly drawn) [Compound 1822_D2]: in experiment [1], the “Activity (HBV assembly assay)” value is reported as “+ (‘+’ indicates >50% activity at about 10 μM)”. Also, in experiment [2], the inhibition at 10 µM was > 50%.
For the compound `O=C(Nc1cc(F)c(F)c(F)c1)c1ccc(F)c(S(=O)(=O)N2CCOCC(O)C2)c1` (stereo not drawn) [Compound 1895], in experiment [1], the “Activity (HBV assembly assay)” value is listed as “+ (‘+’ indicates >50% activity at about 10 μM)”. In addition, in experiment [2], the inhibition at 10 µM was > 50%.
Regarding `O=C(Nc1cc(F)c(F)c(F)c1)c1ccc(CF)c(S(=O)(=O)N2CCOCC(O)(C3CC3)C2)c1` (stereo not drawn) [Compound 2505], the “Activity (HBV assembly assay)” value in experiment [1] is reported as “+ (‘+’ indicates >50% activity at about 10 μM)”. Besides, the inhibition at 10 µM in experiment [2] was > 50%.
With `COc1ccc(C(=O)Nc2ccc(F)c(Cl)c2)cc1S(=O)(=O)N1CCCC(O)C(F)C1` (stereo not drawn) [Compound 2114_D1], the “Activity (HBV assembly assay)” value in experiment [1] was “+ (‘+’ indicates >50% activity at about 10 μM)”. In experiment [2], the inhibition at 10 µM is > 50%.
On the same counts, the results for `O=C(Nc1cc(F)c(F)c(F)c1)c1ccc(F)c(S(=O)(=O)N2C[C@H](O)CC[C@H](O)C2)c1` [Compound 2617_D2] are “+ (‘+’ indicates >50% activity at about 10 μM)” and > 50%.
On the same counts, the results for `O=C(Nc1cc(F)c(F)c(F)c1)c1ccc(CF)c(S(=O)(=O)N2CC(O)CC3CC3C2)c1` (stereo not drawn) [Compound 2550] are “+ (‘+’ indicates >50% activity at about 10 μM)” and > 50%.
As for `O=C(Nc1ccc(F)c(Cl)c1)c1ccc(F)c(S(=O)(=O)N2CCOCC(O)(C3CC3)C2)c1` (stereo not drawn) [Compound 1989], the “Activity (HBV assembly assay)” value in experiment [1] is “+ (‘+’ indicates >50% activity at about 10 μM)”. Also, in experiment [2], the inhibition at 10 µM was > 50%.
Take `CC(=O)OC1CCCCN(S(=O)(=O)c2cc(C(=O)Nc3cc(F)c(F)c(F)c3)ccc2F)C1` (stereo not drawn) [Compound 2024]: in experiment [1], the “Activity (HBV assembly assay)” value is “+ (‘+’ indicates >50% activity at about 10 μM)”. Besides, the inhibition at 10 µM in experiment [2] was > 50%.
On to `O=C(Nc1ccc(F)c(F)c1)c1ccc(F)c(S(=O)(=O)N2CCCC(F)C(O)C2)c1` (stereo not drawn) [Compound 1821], for which the “Activity (HBV assembly assay)” value in experiment [1] is recorded as “+ (‘+’ indicates >50% activity at about 10 μM)”. Moreover, the inhibition at 10 µM in experiment [2] is > 50%.
Consider `CC(=O)O[C@@H]1CC[C@H](OC(C)=O)CN(S(=O)(=O)c2cc(C(=O)Nc3cc(F)c(F)c(F)c3)ccc2F)C1` [Compound 2625_D2], for which the “Activity (HBV assembly assay)” value in experiment [1] is “+ (‘+’ indicates >50% activity at about 10 μM)”. For the same compound, the inhibition at 10 µM in experiment [2] was > 50%.
For the compound `O=C(Nc1ccc(F)c(F)c1)c1ccc(F)c(S(=O)(=O)N2CC(O)CC3CC3C2)c1` (stereo not drawn) [Compound 2547], the “Activity (HBV assembly assay)” value in experiment [1] is recorded as “+ (‘+’ indicates >50% activity at about 10 μM)”. For the same compound, the inhibition at 10 µM in experiment [2] was > 50%.
On the same counts, the results for `COc1ccc(C(=O)Nc2ccc(F)c(F)c2)cc1S(=O)(=O)N1CCOCC(O)C1` (stereo not drawn) [Compound 1979] are “+ (‘+’ indicates >50% activity at about 10 μM)” and > 50%.
On to `O=C(Nc1cc(F)c(F)c(F)c1)c1ccc(F)c(S(=O)(=O)N2CCC[C@@H](O)C(F)C2)c1` (stereo partly drawn) [Compound 1829_D1], for which the “Activity (HBV assembly assay)” value in experiment [1] is on record as “+ (‘+’ indicates >50% activity at about 10 μM)”. The inhibition at 10 µM in experiment [2] is > 50%.
In the case of `O=C(Nc1ccc(F)c(Cl)c1)c1ccc(F)c(S(=O)(=O)N2C[C@H](O)CC[C@H](O)C2)c1` [Compound 2433_D2, N-(3-chloro-4-fluoro-phenyl)-3-(3,6-dihydroxyazepan-1-yl)sulfonyl-4-fluoro-benzamide], the “Activity (HBV assembly assay)” value in experiment [1] is “+ (‘+’ indicates >50% activity at about 10 μM)”. Moreover, the inhibition at 10 µM in experiment [2] was > 50%.
On the same counts, the results for `O=C(Nc1cc(F)c(F)c(F)c1)c1cccc(S(=O)(=O)N2CCOCC(O)C2)c1` (stereo not drawn) [Compound 1975] are “+ (‘+’ indicates >50% activity at about 10 μM)” and > 50%.
On the same counts, the results for `CC(=O)O[C@@H]1CC[C@H](OC(C)=O)CN(S(=O)(=O)c2cc(C(=O)Nc3ccc(F)c(Cl)c3)ccc2F)C1` [Compound 2626_D2] are “+ (‘+’ indicates >50% activity at about 10 μM)” and > 50%.
Taken in the same sequence, the figures for `O=C(Nc1ccc(F)c(Cl)c1)c1ccc(F)c(S(=O)(=O)N2CCCC[C@@H](O)C2)c1` [Compound 1763_E1] were “+ (‘+’ indicates >50% activity at about 10 μM)” and > 50%.
Consider `O=C(Nc1cc(F)c(F)c(F)c1)c1ccc(F)c(S(=O)(=O)N2CCC[C@H](O)C(F)C2)c1` (stereo partly drawn) [Compound 1829_D2], for which the “Activity (HBV assembly assay)” value in experiment [1] is “+ (‘+’ indicates >50% activity at about 10 μM)”. Further, in experiment [2], the inhibition at 10 µM is > 50%.
On to `O=C(Nc1ccc(F)c(Cl)c1)c1ccc(F)c(S(=O)(=O)N2CCC[C@H](O)CC2)c1` [Compound 1766_E2], for which the “Activity (HBV assembly assay)” value in experiment [1] is recorded as “+ (‘+’ indicates >50% activity at about 10 μM)”. The inhibition at 10 µM in experiment [2] was > 50%.
On the same counts, the results for `Cc1ccc(C(=O)Nc2ccc(F)c(F)c2)cc1S(=O)(=O)N1CCCCC(O)C1` (stereo not drawn) [Compound 1914] are “+ (‘+’ indicates >50% activity at about 10 μM)” and > 50%.
For `CC(=O)O[C@@H]1CC[C@H](O)CN(S(=O)(=O)c2cc(C(=O)Nc3cc(F)c(F)c(F)c3)ccc2F)C1` [Compound 2618_D2], the “Activity (HBV assembly assay)” value in experiment [1] is listed as “+ (‘+’ indicates >50% activity at about 10 μM)”. Also, in experiment [2], the inhibition at 10 µM is > 50%.
On the same counts, the results for `CC(=O)O[C@@H]1CC[C@H](O)CN(S(=O)(=O)c2cc(C(=O)Nc3ccc(F)c(Cl)c3)ccc2F)C1` [Compound 2619_D2] are “+ (‘+’ indicates >50% activity at about 10 μM)” and > 50%.
As for `CC1(O)CCCN(S(=O)(=O)c2cc(C(=O)Nc3ccc(F)c(F)c3)ccc2F)CC1` (stereo not drawn) [Compound 1938], the “Activity (HBV assembly assay)” value in experiment [1] is on record as “+ (‘+’ indicates >50% activity at about 10 μM)”. In addition, the inhibition at 10 µM in experiment [2] was > 50%.
With `Cc1ccc(C(=O)Nc2ccc(F)c(Cl)c2)cc1S(=O)(=O)N1CCCC(O)CC1` (stereo not drawn) [Compound 1910], the “Activity (HBV assembly assay)” value in experiment [1] is “+ (‘+’ indicates >50% activity at about 10 μM)”. In addition, the inhibition at 10 µM in experiment [2] is > 50%.
On the same counts, the results for `O=C(Nc1cc(F)c(F)c(F)c1)c1ccc(F)c(S(=O)(=O)N2CCCC(F)C(O)C2)c1` (stereo not drawn) [Compound 1820] are “+ (‘+’ indicates >50% activity at about 10 μM)” and > 50%.
As to `O=C(Nc1cc(F)c(F)c(F)c1)c1ccc(F)c(S(=O)(=O)N2CCCC(O)CC2)c1` (stereo not drawn) [Compound 1765], the “Activity (HBV assembly assay)” value in experiment [1] is “+ (‘+’ indicates >50% activity at about 10 μM)”. In addition, the inhibition at 10 µM in experiment [2] was > 50%.
